Data reported in ChEMBL document CHEMBL1157986, “Vismiaphenones D-G, new prenylated benzophenones from Vismia cayennensis” (J Nat Prod, 1999).
Converted amounts (≈) assume the structure as drawn.

Legend:
[1] = test system: CEM-SS; assay: Cytotoxicity against human CEM-SS cells; format: functional, cell-based
[2] = test system: Human immunodeficiency virus; assay: Antiviral activity against HIV; format: functional, organism-based; settings: Human immunodeficiency virus 1

- EC50 [2]: 11 µg/mL (≈ 27.7 µM)
Compound: COc1c(CC=C(C)C)c(O)c(C(=O)c2ccc(O)cc2)c(O)c1CC=C(C)C [VISMIAPHENONE D]
- IC50 [1]: 30 µg/mL (≈ 75.7 µM)
